In US20210361638A1, “FXR AGONISTS FOR THE TREATMENT OF LIVER DISEASES” (NOVARTIS AG, priority 2017, published 2021):
Entries after “also recorded” stand apart in the source; their conditions may differ.

Key:
NASH subjects = conditions: FLINT trial; placebo-treated patients 6%; cited from earlier work
[1] = system: ANIT-induced cholestatic rats; experiment: ANIT-induced cholestasis rat model; format: in vivo, Sprague-Dawley (SD) rats
Procedure: Experimental protocols were approved by the local Animal Care and Use Committee and were in compliance with Animal Welfare Act regulations and US regulation (Guide for the Care and Use of Laboratory Animals). […] . The tropifexor-treated rats were sacrificed at 1 and 7 h (n=3/time point) and OCA-treated rats were sacrificed at 1, 3, and 7 h (n=3/time point) after the final dose on day 14 for analysis of target gene expression and serum biomarkers. […] .

NASH mice = experiment: Diet-induced (AMLN diet) insulin-resistant NASH mouse model; format: in vivo, C57B16 mice
Source text: A separate model for diet-induced NASH was developed as described by Trevaskis et al. Male C57B16 mice aged […] were maintained on a high fat (40% kcal; Primex), high fructose (22% by weight), and high cholesterol (2% by weight) diet (Research Diets Inc., New Brunswick, N.J. cat. no. D09100301) for 26 weeks to induce NASH. Control animals received low-fat diet (10% kcal) with no fructose or cholesterol (Research Diets, cat. no. D09100304). […] . Expression of collagen, type I, alpha 1 (Col1a1) and tissue inhibitor of metalloproteinase 1 (Timp1) genes was analyzed by real time quantitative PCR.

[2] = Exposure and exploratory exposure-response analysis in NASH patients; format: in vivo, human
FGF19 = experiment: Pharmacodynamic marker FGF19 with increasing doses; format: in vivo; conditions: increasing doses up to 3000 μg
dogs = experiment: Oral gavage toxicity studies in dogs for up to 39 weeks
STAM mice = experiment: STAM mouse model of NASH; conditions: for NAFLD activity score (NAS): doses 0.1 and 0.3 mg/kg, qd orally weeks 9-12; for Sirius Red-positive areas (pericellular fibrosis): tropifexor 0.03, 0.1, 0.3 mg/kg; for liver triglycerides: tropifexor qd orally weeks 9-12
Procedure: Further experiments in the STAM model were performed: 2-day old male C57Bl/6J mice were injected with streptozotocin and placed on a high-fat diet (HFD) from weeks 4-12 (HFD-32; CLEA-Japan, Tokyo, Japan). […] Hematoxylin & eosin (H&E)-stained sections were evaluated for nonalcoholic fatty liver disease (NAFLD) activity score (NAS) according to previously defined criteria.
Liver sections were fixed in 4% paraformaldehyde for 48 h and shipped for histopathological analysis.

FGR5 = FGR5 effects (specificity)

CC[C@H]1[C@@H](O)[C@@H]2[C@H](CC[C@]3(C)[C@@H]([C@H](C)CCC(=O)O)CC[C@@H]23)[C@@]2(C)CC[C@@H](O)C[C@@H]12 [OCA, 6α-ethyl-chenodeoxycholic acid]
patients with pruritus (NASH subjects): 23%

O=C(O)c1cc(F)c2nc(N3C4CC[C@H]3C[C@H](OCc3c(-c5ccccc5OC(F)(F)F)noc3C3CC3)C4)sc2c1 [tropifexor, 2-[(1R,3r,5S)-3-({5-cyclopropyl-3-[2-(trifluoromethoxy)phenyl]-1,2-oxazol-4-yl}methoxy)-8-azabicyclo[3.2.1]octan-8-yl]-4-fluoro-1,3-benzothiazole-6-carboxylic acid]
quantitation of collagen deposition (fibrosis) ([1]; FIG. 1D, vs vehicle-treated ANIT livers): significantly decreased
serum biochemistry parameters, liver damage, and fibrosis ([1]; FIG. 1 legend): improves
collagen deposition and liver fibrosis ([1]; chronic ANIT treatment, FIG. 1C): highly reduced
AST, ALT, total BAs, total bilirubin, and GGT levels ([1]; doses as low as 0.3 mg/kg, oral qd 5 days, vs vehicle-treated ANIT rats): marked reduction
reduction of cholestatic disease markers, comparison with OCA ([1]; rat, in vivo): more effective than OCA
liver histology: necrosis of the bile duct epithelium, bile duct hyperplasia, inflammatory cell infiltrates ([1]; vs vehicle-treated cholestatic rats, 0.03, 0.3, 1 mg/kg): dose-dependent improvement
hepatic crown-like structures (NASH mice; mid- and high dose tropifexor): completely eliminated
ALT and AST levels (NASH mice; mid-dose level): normalized
collagen deposition in liver (fibrosis), Trichrome staining (NASH mice; mouse, in vivo): strongly abrogates; also recorded: reverses
steatosis by quantification of liver triglycerides (NASH mice; mouse, in vivo): Dose-dependent reduction
mRNA levels of fibrogenic markers Col1a1 and TIMP1 (NASH mice; real time quantitative PCR): dramatically reduced
ALT and AST (NASH mice; relative to vehicle-treated controls, 4 weeks qd orally): dose-dependent reduction
liver inflammation, steatosis, and fibrosis (NASH mice; therapeutic mode): resolved
predicted exposure in NASH patients ([2]; 200 μg daily): approximately 80 ng·hr/ml
exposure level in NASH patients ([2]; at 200 μg): 80 ng·h/mL
pharmacodynamic marker FGF19 (FGF19): continues to rise
Mean AUC0-24 h at which hepatocellular hypertrophy was adverse (dogs; females): 507 ng·h/mL
Mean AUC0-24 h at which hepatocellular hypertrophy was adverse (dogs; males): 898 ng·h/mL
Plasma cholesterol levels (STAM mice; FIG. 2 legend): significantly reduced
NAFLD activity score (NAS) (STAM mice): significantly reduced
NAFLD activity score (NAS) (STAM mice; listed as LJN452): significant decrease
fibrosis area in comparison with baseline group (STAM mice; mouse, in vivo): decreased
resolution of the NASH phenotype, comparison with OCA (STAM mice; mouse, in vivo): more effectively than OCA
Sirius Red-positive areas (pericellular fibrosis) (STAM mice): significantly reduced
Sirius Red-positive areas (pericellular fibrosis) (STAM mice; listed as Tropifexor): statistically significant dose-dependent reduction
liver triglycerides (STAM mice): significantly reduced
liver triglycerides (STAM mice; listed as LJN452): reduction
FGR5 effects (FGR5): no FGR5 effects
